Assay results taken from article PMC5849655 (European Journal of Clinical Pharmacology, 2017).
Read-outs that look alike come from different tables or passages of the source.

Legend:
[1] = system: Caco-2 cell (human colon carcinoma cell line) monolayers; assay: Caco-2 permeability (siponimod, reference compound); type: in vitro ADME; conditions: SimCYP V12 input of the siponimod model
Procedure: (§1) Siponimod absorption was predicted based on the permeability of Caco-2 cell (human colon carcinoma cell line) monolayers and considered to be complete (fraction absorbed [fa] = 1). Absorption rate constant (Ka) was calculated from the first clinical data to be 0.98/h. […] A volume of distribution of 2.12 L/kg was estimated based on preclinical data observation. The initial CL estimation of the siponimod model was based on human in vitro data from HLM and recombinant enzyme kinetics [unpublished data]. By using the in vivo clearance (CL/F) together with the fractional contribution of each CYP enzyme (phenotyping data) in the SimCYP retrograde calculator, the enzyme CLint values were estimated, resulting in an improved drug exposure prediction (Table 3).

[2] = as above; type: in vitro ADME, human; conditions: human, Caco-2; SimCYP V9 input of the siponimod model; read-out: Reference compound permeability
Procedure: as §1

CYP2C19 = CYP2C19 (Homo sapiens, UniProt P33261); conditions: cited from earlier work; for Ki: read-out: Competitive inhibition constant, Ki (CYP2C19)
Sequence of CYP2C19 (P33261 whole entry): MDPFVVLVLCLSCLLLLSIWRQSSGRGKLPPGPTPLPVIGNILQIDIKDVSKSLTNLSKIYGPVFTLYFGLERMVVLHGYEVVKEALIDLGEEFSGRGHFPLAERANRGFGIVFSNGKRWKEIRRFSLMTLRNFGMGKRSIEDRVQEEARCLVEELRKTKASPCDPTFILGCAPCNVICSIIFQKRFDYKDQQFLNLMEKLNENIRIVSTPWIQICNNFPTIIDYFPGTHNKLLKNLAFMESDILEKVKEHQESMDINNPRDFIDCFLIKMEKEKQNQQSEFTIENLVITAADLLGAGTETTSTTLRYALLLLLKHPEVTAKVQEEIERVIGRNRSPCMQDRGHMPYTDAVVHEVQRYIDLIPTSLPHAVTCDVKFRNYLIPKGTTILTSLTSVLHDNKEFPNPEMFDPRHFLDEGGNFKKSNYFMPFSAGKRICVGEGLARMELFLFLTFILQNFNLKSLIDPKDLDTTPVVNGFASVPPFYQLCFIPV

CYP3A5 = conditions: cited from earlier work
[3] = cited from earlier work
Caco 2 = conditions: cited from earlier work
[4] = cited from earlier work; remark: listed apart in the source
CYP = conditions: cited from earlier work
[5] = cited from earlier work; remark: listed apart in the source

Which Reference compound permeability [1] does the source give for CC(C)NCC(O)COc1cccc2ccccc12 (stereo not shown) [Propranolol, reference compound] here?
The Reference compound permeability was “Propranolol 5.33 10^-6cm/s”.

What about the Papp [2] of the same molecule?
The Papp was 5.33 ×10⁻⁶ cm/s.

Which results are given for OC(Cn1cncn1)(Cn1cncn1)c1ccc(F)cc1F [fluconazole]?
Fraction unbound in vitro, fumic (CYP2C19) (CYP2C19; ref SimCYP version 9): 1; Ki (CYP2C19; ref SimCYP version 9): 2 µM; Fraction unbound in vitro, fumic (CYP2C19) (CYP2C19; ref SimCYP version 16): 1; Ki (CYP2C19; ref SimCYP version 16): 2 µM; Fraction unbound in vitro, fumic (CYP3A5) (CYP3A5; ref SimCYP version 9): 1; Fraction unbound in vitro, fumic (CYP3A5) (CYP3A5; ref SimCYP version 16): 1; Compound type ([3]; ref SimCYP version 9): monoprotic base; Compound type ([3]; ref SimCYP version 16): monoprotic base; Caco 2 permeability, P Caco 2 (Caco 2; ref SimCYP version 9): 29.8 10^-6cm/s; Caco 2 permeability, P Caco 2 (Caco 2; ref SimCYP version 16): 29.8 10^-6cm/s; Main plasma binding protein ([4]; ref SimCYP version 9): HSA; Main plasma binding protein ([4]; ref SimCYP version 16): HSA; Is the compound a CYP inducer? (CYP; ref SimCYP version 9): no; Is the compound a MBI? (CYP; ref SimCYP version 9): no; Is the compound a CYP inducer? (CYP; ref SimCYP version 16): no; Is the compound a MBI? (CYP; ref SimCYP version 16): no; In vivo po clearance, CLpo ([5]; ref SimCYP version 9): 1.5 L/h; Renal clearance in a 20-30 yr healthy male, CLR ([5]; ref SimCYP version 9): 0.865 L/h; Volume of distribution, Vss ([5]; ref SimCYP version 9): 0.57 L/kg; In vivo iv clearance, CLiv ([5]; ref SimCYP version 16): 1.01 L/h; Renal clearance in a 20-30 yr healthy male, CLR ([5]; ref SimCYP version 16): 0.700 L/h; Volume of distribution, Vss ([5]; ref SimCYP version 16): 0.748 L/kg; In vivo iv clearance, CLiv ([5]; used in the V9 model, ref SimCYP V7): 1.3 (SimCYP V7) L/h
